Data: PMC5923399 (Marine Drugs, 2018)
Where a SMILES comes first, the peptide text is derived from it. Bridges are numbered along the chain shown (N, C = ends).

Tests used:
rat α3β2 nAChRs = biological target: T1, rat α3β2 nAChRs (Rattus norvegicus, UniProt P04757+P12390); experiment: cell-based
T1 construct: expressed in transfected cells; host or cells: Xenopus oocytes (cRNA injection)

GABABR-coupled Cav2.2 = biological target: T2, GABABR-coupled Cav2.2 (Homo sapiens, UniProt O75899+Q9UBS5); experiment: cell-based; design: species or system human GABABR and rat Cav2.2
T2 construct: expressed in transfected cells; host or cells: HEK293T cells, transient transfection; GABAB subunit plasmids from David J. Adams, University of Wollongong
T2 sequence (Q9UBS5 15-961 limits assumed): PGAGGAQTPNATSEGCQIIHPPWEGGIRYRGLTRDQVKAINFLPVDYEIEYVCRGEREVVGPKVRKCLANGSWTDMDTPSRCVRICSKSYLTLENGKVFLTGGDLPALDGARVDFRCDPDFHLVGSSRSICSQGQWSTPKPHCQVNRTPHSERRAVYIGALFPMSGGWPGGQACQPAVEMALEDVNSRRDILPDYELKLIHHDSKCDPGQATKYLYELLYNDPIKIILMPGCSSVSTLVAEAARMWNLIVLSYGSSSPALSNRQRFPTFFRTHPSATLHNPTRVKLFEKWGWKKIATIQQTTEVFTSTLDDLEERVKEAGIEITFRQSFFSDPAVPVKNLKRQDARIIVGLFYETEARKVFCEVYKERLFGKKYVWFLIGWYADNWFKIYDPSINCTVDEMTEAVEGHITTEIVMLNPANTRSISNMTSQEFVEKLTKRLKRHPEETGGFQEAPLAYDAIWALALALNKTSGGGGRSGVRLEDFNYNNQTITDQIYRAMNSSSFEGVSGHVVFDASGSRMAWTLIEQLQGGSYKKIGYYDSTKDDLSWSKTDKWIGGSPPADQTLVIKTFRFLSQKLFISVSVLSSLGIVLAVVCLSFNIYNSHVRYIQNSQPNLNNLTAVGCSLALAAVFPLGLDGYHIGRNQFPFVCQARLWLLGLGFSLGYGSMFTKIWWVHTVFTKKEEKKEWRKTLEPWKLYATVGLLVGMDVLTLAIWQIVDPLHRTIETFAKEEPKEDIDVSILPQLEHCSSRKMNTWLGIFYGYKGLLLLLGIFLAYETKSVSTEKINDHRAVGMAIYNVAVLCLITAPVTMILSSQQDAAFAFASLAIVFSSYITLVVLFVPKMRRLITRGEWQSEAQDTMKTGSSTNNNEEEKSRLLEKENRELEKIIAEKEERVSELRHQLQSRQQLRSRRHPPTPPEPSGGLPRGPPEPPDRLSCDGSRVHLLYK
T2 sequence (O75899 42-941): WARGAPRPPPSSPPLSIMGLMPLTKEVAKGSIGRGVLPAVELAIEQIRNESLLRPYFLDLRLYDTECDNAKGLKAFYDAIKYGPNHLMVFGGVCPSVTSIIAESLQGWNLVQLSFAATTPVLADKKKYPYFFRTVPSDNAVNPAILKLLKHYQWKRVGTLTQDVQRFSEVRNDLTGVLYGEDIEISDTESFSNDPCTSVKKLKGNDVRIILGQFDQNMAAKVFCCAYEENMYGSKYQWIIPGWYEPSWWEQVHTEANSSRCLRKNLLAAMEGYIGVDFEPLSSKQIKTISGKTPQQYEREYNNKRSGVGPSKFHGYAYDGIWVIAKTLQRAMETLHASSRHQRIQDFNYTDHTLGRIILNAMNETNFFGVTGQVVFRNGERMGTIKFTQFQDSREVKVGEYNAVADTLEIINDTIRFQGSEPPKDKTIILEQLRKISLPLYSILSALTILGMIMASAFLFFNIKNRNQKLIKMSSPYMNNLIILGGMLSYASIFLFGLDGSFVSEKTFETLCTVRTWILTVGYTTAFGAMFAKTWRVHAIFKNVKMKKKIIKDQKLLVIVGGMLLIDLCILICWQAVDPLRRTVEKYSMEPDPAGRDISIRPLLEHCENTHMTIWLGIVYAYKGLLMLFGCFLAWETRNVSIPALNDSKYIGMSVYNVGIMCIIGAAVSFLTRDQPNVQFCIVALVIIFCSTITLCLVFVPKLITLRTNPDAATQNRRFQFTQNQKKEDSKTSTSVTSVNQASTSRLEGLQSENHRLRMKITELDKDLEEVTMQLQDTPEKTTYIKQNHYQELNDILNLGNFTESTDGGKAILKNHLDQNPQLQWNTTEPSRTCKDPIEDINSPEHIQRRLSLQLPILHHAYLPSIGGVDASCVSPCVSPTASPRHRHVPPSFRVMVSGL

hα3β2 nAChR = settings: cited from earlier work
hα4β2 nAChR = settings: cited from earlier work
hα3β4 nAChR = settings: cited from earlier work
α7 nAChR = biological target: T3, α7 nAChR (Rattus norvegicus, UniProt Q05941); settings: cited from earlier work
T3 construct: expressed in transfected cells; host or cells: Xenopus oocytes (cRNA injection)

α4β2 nAChR = biological target: T4, α4β2 nAChR (Rattus norvegicus, UniProt P09483+P12390); settings: cited from earlier work
T4 construct: expressed in transfected cells; host or cells: Xenopus oocytes (cRNA injection)

α3β2 nAChR = settings: cited from earlier work
α9α10 nAChR = biological target: T5, α9α10 nAChR (Rattus norvegicus, UniProt P43144+Q9JLB5); settings: read-out: IC50 α9α10; cited from earlier work
T5 construct: expressed in transfected cells; host or cells: Xenopus oocytes (cRNA injection)
T5 sequence (P43144 26-479 limits assumed): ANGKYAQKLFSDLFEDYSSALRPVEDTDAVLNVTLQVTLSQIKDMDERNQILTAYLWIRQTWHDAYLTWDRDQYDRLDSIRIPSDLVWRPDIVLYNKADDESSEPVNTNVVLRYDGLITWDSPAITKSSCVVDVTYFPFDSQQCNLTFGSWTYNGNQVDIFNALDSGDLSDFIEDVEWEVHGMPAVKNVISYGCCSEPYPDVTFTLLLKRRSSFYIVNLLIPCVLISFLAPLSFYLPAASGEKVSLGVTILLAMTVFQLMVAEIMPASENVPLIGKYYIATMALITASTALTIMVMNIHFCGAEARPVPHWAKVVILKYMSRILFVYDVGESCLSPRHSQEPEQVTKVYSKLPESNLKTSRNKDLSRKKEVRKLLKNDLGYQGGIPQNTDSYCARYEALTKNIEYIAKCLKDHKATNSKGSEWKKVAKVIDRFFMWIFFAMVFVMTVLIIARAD
T5 sequence (Q9JLB5 25-447 limits assumed): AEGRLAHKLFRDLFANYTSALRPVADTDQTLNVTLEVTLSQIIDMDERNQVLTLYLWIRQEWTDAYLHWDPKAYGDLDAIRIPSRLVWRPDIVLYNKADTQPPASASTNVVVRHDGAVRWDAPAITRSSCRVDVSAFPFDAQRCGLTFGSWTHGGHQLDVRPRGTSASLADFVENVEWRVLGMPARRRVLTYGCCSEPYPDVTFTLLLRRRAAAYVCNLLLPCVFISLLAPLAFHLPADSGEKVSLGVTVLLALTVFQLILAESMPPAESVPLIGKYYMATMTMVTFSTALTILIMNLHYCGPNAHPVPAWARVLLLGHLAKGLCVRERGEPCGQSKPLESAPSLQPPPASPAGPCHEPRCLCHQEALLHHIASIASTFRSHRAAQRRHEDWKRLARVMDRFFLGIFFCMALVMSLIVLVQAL

T1 sequence (P04757 26-499 limits assumed): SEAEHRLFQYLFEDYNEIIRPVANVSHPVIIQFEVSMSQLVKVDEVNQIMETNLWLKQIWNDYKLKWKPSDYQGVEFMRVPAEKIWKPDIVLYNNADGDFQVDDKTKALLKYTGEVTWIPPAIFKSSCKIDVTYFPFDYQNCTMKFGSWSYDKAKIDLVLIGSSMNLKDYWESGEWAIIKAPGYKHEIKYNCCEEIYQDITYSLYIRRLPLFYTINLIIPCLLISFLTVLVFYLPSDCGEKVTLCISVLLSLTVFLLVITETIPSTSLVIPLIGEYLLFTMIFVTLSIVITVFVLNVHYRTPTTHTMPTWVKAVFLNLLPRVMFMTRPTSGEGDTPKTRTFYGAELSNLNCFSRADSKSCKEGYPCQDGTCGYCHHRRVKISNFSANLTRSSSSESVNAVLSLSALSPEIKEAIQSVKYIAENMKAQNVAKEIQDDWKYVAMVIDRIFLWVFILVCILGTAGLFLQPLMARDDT
T1 sequence (P12390 25-500 limits assumed): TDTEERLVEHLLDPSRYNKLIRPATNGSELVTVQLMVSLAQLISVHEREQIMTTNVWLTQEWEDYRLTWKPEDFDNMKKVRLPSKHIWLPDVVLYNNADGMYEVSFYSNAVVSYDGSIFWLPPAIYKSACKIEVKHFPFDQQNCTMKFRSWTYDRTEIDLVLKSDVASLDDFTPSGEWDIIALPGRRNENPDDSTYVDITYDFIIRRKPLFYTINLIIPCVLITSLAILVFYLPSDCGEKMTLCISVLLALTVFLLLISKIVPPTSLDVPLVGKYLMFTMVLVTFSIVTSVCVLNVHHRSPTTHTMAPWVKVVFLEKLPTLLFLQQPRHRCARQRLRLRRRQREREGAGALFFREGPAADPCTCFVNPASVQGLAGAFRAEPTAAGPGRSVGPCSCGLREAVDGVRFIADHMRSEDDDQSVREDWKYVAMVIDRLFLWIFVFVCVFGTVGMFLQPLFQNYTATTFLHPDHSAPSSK

C[C@@H]1NC(=O)[C@@H]2CCCN2C(=O)[C@H](Cc2c[nH]cn2)NC(=O)[C@H](CO)NC(=O)[C@@H]2CSSC[C@H](NC1=O)C(=O)N[C@@H](CO)C(=O)NCC(=O)N[C@@H](CC(N)=O)C(=O)N[C@@H](CC(N)=O)C(=O)N1CCC[C@H]1C(=O)N[C@@H](Cc1ccc(O)cc1)C(=O)N[C@@H](Cc1ccccc1)C(=O)N[C@H](C(N)=O)CSSC[C@H](NC(=O)CN)C(=O)N2 [Lt1.3-I] (H-GCCSHPACSGNNPYFC-NH2; disulfide 2-16, 3-8)
IC50 (rat α3β2 nAChRs): > 10000 nM
IC50 (GABABR-coupled Cav2.2): 33.9 nM
inhibition at 0.1 µM (GABABR-coupled Cav2.2; HEK-293T, read-out: inhibition of peak current amplitude, SEM): 28 ± 3.8%

C[C@@H]1NC(=O)CNC(=O)[C@H](CO)NC(=O)[C@@H]2CSSC[C@H](NC(=O)CN)C(=O)N[C@@H](CSSC[C@@H](C(N)=O)NC(=O)[C@H](Cc3ccccc3)NC(=O)[C@H](Cc3ccc(O)cc3)NC(=O)[C@@H]3CCCN3C(=O)[C@H](CC(N)=O)NC1=O)C(=O)N[C@@H](CO)C(=O)N[C@@H](Cc1c[nH]cn1)C(=O)N1CCC[C@H]1C(=O)N[C@@H](C)C(=O)N2 [Lt1.3[N11A]] (H-GCCSHPACSGANPYFC-NH2; disulfide 2-8, 3-16; N-terminus assumed)
IC50 (rat α3β2 nAChRs): > 10000 nM

C[C@@H]1NC(=O)[C@@H]2CSSC[C@H](NC(=O)CN)C(=O)N[C@@H](CSSC[C@@H](C(N)=O)NC(=O)[C@H](Cc3ccccc3)NC(=O)[C@H](Cc3ccc(O)cc3)NC(=O)[C@@H]3CCCN3C(=O)[C@H](CC(N)=O)NC(=O)[C@H](CC(N)=O)NC(=O)CNC1=O)C(=O)N[C@@H](CO)C(=O)N[C@@H](Cc1c[nH]cn1)C(=O)N1CCC[C@H]1C(=O)N[C@@H](C)C(=O)N2 [Lt1.3[S9A]]
IC50 (rat α3β2 nAChRs): 35.4 nM

G CC SHPA C AGNNQHI C * (bicyclic or more) [GIC, α4/7-CTx targeting nAChR α3β2]
IC50 (hα3β2 nAChR): 1.1 nM
IC50 (hα4β2 nAChR): 309 nM
IC50 (hα3β4 nAChR): 755 nM

G CC SNPV C HLEHSNL C * (bicyclic or more) (GCCSNPVCHLEHSNLC) [MII, α4/7-CTx targeting nAChR α3β2]
IC50 (α7 nAChR): ~200 nM
IC50 (α4β2 nAChR): 548 nM

G CC SNPV C HLEHSNL C * (bicyclic or more) [MII, α4/7-CTx targeting nAChR α3β2]
IC50 (α3β2 nAChR): 0.5 nM

GG CC SHPA C AANNQD(sTy) C * (bicyclic or more) [AnIB, α4/7-CTx targeting nAChR α3β2]
IC50 (α3β2 nAChR): 0.3 nM

IRDE CC SNPA C RVNNOHV C RRR (bicyclic or more) [ArIA, α4/7-CTx targeting nAChR α3β2]
IC50 (α3β2 nAChR): 18 nM

PE CC THPA C HVSHPEL C * (bicyclic or more) [Mr1.7, α4/7-CTx targeting nAChR α3β2]
IC50 (α3β2 nAChR): 53.1 nM
IC50 (α9α10 nAChR): 188 nM

SG CC SNPA C RVNNPNI C * (bicyclic or more) (SGCCSNPACRVNNPNIC) [LsIA, α4/7-CTx targeting nAChR α3β2]
IC50 (α7 nAChR): 10.1 nM

SG CC SNPA C RVNNPNI C * (bicyclic or more) [LsIA, α4/7-CTx targeting nAChR α3β2]
IC50 (α3β2 nAChR): 10.3 nM
